Measurements taken from patent US20090156480A1, “Biodegradable nanoparticle having t-cell recognizable epitope peptide immobilized thereon or encapsulated therein” (priority 2005, published 2009).

What was measured:
Format in all cases: in vivo, BALB/c mice
[1] = test system: draining lymph node cells; assay: Immunization potential: lymph node cell proliferation ([3H]thymidine intake) after subcutaneous footpad injection; settings: s.c. footpads, nanoparticles corresponding to 20 μg peptide, FIG. 1; for cell proliferation response (thymidine intake) to the injected T cell recognizable epitope peptide: day 11 lymph node cells stimulated with P1 or P2 20 μg/ml; for cell proliferation response (thymidine intake) to SBP: day 11 lymph node cells stimulated with SBP 10 μg/ml
Protocol: (§1) Subcutaneously injected into the footpads of BALB/c mice (6-week-old male) was 100 μl (50 μl for each footpad) of a suspension of biodegradable nanoparticles having immobilized thereon Cryj1 or Cryj2 T cell recognizable epitope peptide (P1 or P2) (the amount of nanoparticles corresponding to 20 μg of the peptide) or nanoparticles having no peptide immobilized thereon. On day 11, a draining lymph node was removed to collect lymph node cells, which were then suspended in a mixture of RPM 11640 medium and 10% fetal calf serum (FCS). Such cells from two mice were combined together for use in each group. The cells were placed onto a 96-well incubation plate in an amount of 5×10^5 in each well. Further placed into each well as an antigen stimulus was P1 or P2 to a final concentration of 20 μg/ml or a cedar pollen roughly purified antigen (Sugi Basic Protein, SBP, Asahi Food and Health Care Co., Ltd.) in an amount of 10 μg/ml. Half of the mixture to be incubated was replaced by a fresh mixture to be incubated and containing [^3H] tritium-thymidine (0.5 μCi) 48 hours after the start of incubation. The cells were then collected onto a glass filter 16 hours thereafter by a cell harvester, and the [^3H] tritium intake (thymidine intake) was measured by a liquid scintillation counter for the evaluation of cell proliferation. The SBP mentioned above is an allergen containing both Cryj1 and Cryj2.

[2] = test system: draining lymph node cells; assay: Ocular (conjunctival) administration, SBP sensitization: cell proliferation (thymidine intake) on SBP stimulation; settings: 5 μg peptide eight times, SBP sensitization day 16, SBP 10 μg/ml, versus ocularly untreated mice, FIG. 3
Protocol: as §1, with “Further placed into each well as an antigen stimulus was P1 or P2 to a final concentration of 20 μg/ml or a cedar pollen roughly purified antigen (Sugi Basic Protein, SBP, Asahi Food and Health Care Co., Ltd.) in an amount of 10 μg/ml. Half of the mixture to be incubated was replaced by a fresh mixture to be incubated and containing [^3H] tritium-thymidine (0.5 μCi) 48 hours after the start of incubation.” left out, “The SBP mentioned above is an allergen containing both Cryj1 and Cryj2.” left out
Mucosal administration of antigens is thought promising in immunotherapy, and the conjunctiva is considered to be one of the routes of administration (J. Immunol. 2000, 164: 4543-4550). […] The proliferation of cells was measured by the same method as described in Example 2. […]

interleukin-5 = assay: Ocular (conjunctival) administration: interleukin-5 production by sandwich ELISA; settings: 5 μg peptide eight times, supernatant 64 hours, SBP 10 μg/ml, versus ocularly untreated mice, FIG. 3
Protocol: (§2) Mucosal administration of antigens is thought promising in immunotherapy, and the conjunctiva is considered to be one of the routes of administration (J. Immunol. 2000, 164: 4543-4550). Biodegradable nanoparticles having immobilized thereon T cell recognizable epitope peptide were ocularly-instilled to investigate the influence on the response to the subsequent antigen sensitization. A saline solution of Cryj2 T cell recognizable epitope peptide (P2) (5 μg of the peptide) or a suspension of P2 immobilized nanoparticles (corresponding to 5 μg of the peptide) administered dropwise, in an amount of 10 μl, to the conjunctivas of the eyes of BALB/c mice (7-week-old male) eight times (on days 1-4 and days 6-9). On day 16, a suspension of 5 μg of cedar pollen roughly purified antigen SBP in Freund's incomplete adjuvant was injected for antigen sensitization into the right footpads to give rise to an immune response. […] The proliferation of cells was measured by the same method as described in Example 2. For the measurement of cytokine production, the supernatant was collected 64 hours after the start of incubation to quantitatively determine interleukin-5 and interferon-γ by sandwich ELISA using Bio-Plex cytokine assay system (product of Bio-Rad).

interferon-γ = assay: Ocular (conjunctival) administration: interferon-γ production by sandwich ELISA; settings: 5 μg peptide eight times, supernatant 64 hours, SBP 10 μg/ml, versus ocularly untreated mice, FIG. 3
Protocol: as §2

Sequence	cell proliferation response (thymidine intake) to the injected T cell recognizable epitope peptide [1]	cell proliferation response (thymidine intake) to SBP [1]	cell proliferation response (thymidine intake) to the stimulation with the antigen [2]	production of interleukin-5 (Th2 cytokine) (interleukin-5)	production of interferon-γ (Th1 cytokine) (interferon-γ)
RAEVSYVHVNGAKF [P2 alone]	specific cell proliferation response was observed	observed was a response to the SBP	lower	reduced to nearly the same extent	lower
KQVTIRIGCKTSSS [P1, in b77 the label stands for the P1-immobilized nanoparticles injected]	specific cell proliferation response was observed	observed was a response to the SBP	–	–	–
